Measurements from ChEMBL document CHEMBL1121889, “Preparation and analgesic properties of amino acid derivatives of (-)-5,9 alpha-diethyl-2'-hydroxybenzomorphan” (J Med Chem, 1981).

Legend:
Type in all cases: protein assay
[1] = target: T1, Opioid receptor (Rattus norvegicus, UniProt P33533+P34975+P33535); assay: Compound was tested for its ability to displace [3H]naloxone from Opioid receptors in absence of NaCl
[2] = target: T1, Opioid receptor; assay: Compound was tested for its ability to displace [3H]naloxone from Opioid receptors in presence of NaCl (100 mM)
[3] = target: T1, Opioid receptor; assay: Compound was tested for its ability to displace [3H]- naloxone] from Opioid receptors in absence of NaCl
[4] = target: T1, Opioid receptor; assay: Compound was tested for its ability to displace [3H]- naloxone] from Opioid receptors in presence of NaCl (100 mM)

Row | Structure (SMILES) | IC50 [1] | IC50 [2] | IC50 [3] | IC50 [4]
1 | CCC1C2Cc3ccc(O)cc3C1(CC)CCN2C(=O)C(N)CC(C)C (centres undefined) | 1503 nM | 6384 nM | – | –
2 | CCC1C2Cc3ccc(O)cc3C1(CC)CCN2C(=O)C(N)Cc1ccccc1.Cl (stereo in doubt; 2e) | > 10000 nM | > 10000 nM | – | –
3 | CC[C@H]1[C@H]2Cc3ccc(O)cc3[C@]1(CC)CCN2 | – | – | 20 nM | 360 nM
4 | CCC1C2Cc3ccc(O)cc3C1(CC)CCN2C(=O)C(N)CCCN=C(N)N.Cl (centres undefined) | 15.5 nM | 660 nM | – | –
5 | CCC1C2Cc3ccc(O)cc3C1(CC)CCN2C(=O)C(N)CCSC.Cl (centres undefined) | 301 nM | 5586 nM | – | –
6 | CCC1C2Cc3ccc(O)cc3C1(CC)CCN2C(=O)CN.Cl (centres undefined) | 287 nM | 8184 nM | – | –
7 | CCC1C2Cc3ccc(O)cc3C1(CC)CCN2C(=O)C(N)Cc1ccccc1.Cl (stereo in doubt; 2d) | 1540 nM | 3350 nM | – | –
